Test system: Staphylococcus aureus
Assay: Inhibition of lipid synthesis in Staphylococcus aureus ATCC 29213 at 8 times MIC preincubated for 30 mins followed by [3H]-glycerol and measured after 50 mins by [3H]-glycerol incorporation based beta scintillation counter analysis
Assay type: functional
Details: time 80 min; 1.333 h

For `C/C=C/C/C=C/CCC(=O)[C@H]1O[C@H]1C(N)=O` [CERULENIN], the “inhibition (INH)” value was 71.9%.

— ChEMBL document CHEMBL5107949, “Design, synthesis, and antibacterial activity of N-(trifluoromethyl)phenyl substituted pyrazole derivatives” (RSC Med Chem, 2021)
